Measured values as given in patent publication US8653080B2, “Methods for screening and compounds that protect against amyloid diseases” (Salk Institute for Biological Studies, priority 2009, dated 2014).

What was measured:
CL660 animals [1] = experiment: vGFP signal scoring in transgenic C. elegans (CL660) expressing Aβ, liquid culture; assay type: in vivo; conditions: compounds at 100 μM in S-media; 36 hours into adulthood; FIG. 18; control DMSO 0.1%
Description: Identification of compounds that inhibit aggregation-mediated proteotoxicity was carried out using transgenic C. elegans strain, which expresses human Aβ1-42 within body wall muscles under the direction of the myo-3 promoter cause by induction at 25 C and inhibition of smg-1 activity. This induction in the absence of an effective inhibitor causes association of a heat shock protein-GFP fusion construct with the Aβ1-42 (a schematic of this model is shown in FIG. 2).
Twenty-four hours after placing the L1-stage worms into the fridge, the plates were removed for fileting. Fifteen to twenty-five worms each were placed into wells of a microtiter plate containing compounds to be tested in an aqueous environment or a corresponding control. Only worms that were moving normally were filleted. The worms were incubated for approximately 36 hours or until L3 stage was reached. Aβ toxicity was then generated by growing the worms at 25 C for 18 hours which effects smg-1 activity. […] Typically the worms settled to the bottom of the well and were counted manually.
(§1) Animals were grown at 15° C. until adulthood. Gravid adults were suspended and bleached; eggs were resuspended in M9 salt solution and allowed to hatch for 24 hours at 15° C. Compounds were added to S-media at 100 μM concentration and then aliquoted to 48-well Costar plates at 400 μL per well. As a control, DMSO was added to S-media at 0.1% concentration. L1 hatched larvae were added to each well at 50-100 animals per 25 μL aliquot. Worms were thus grown in liquid media until reaching the third larval stage (L3) at 15° C. At L3 worms were shifted to 25° C. to begin biogenesis of Aβ protein. Observation began 24 hours later when the animals have reached adulthood (timepoint=0 hrs). Animals were scored as either with or without vGFP signal, regardless of intensity level.

CL660 animals [2] = experiment: vGFP scoring in CL660 animals fed bacteria expressing RNAi (daf-16, hsf-1) plus compound; assay type: in vivo, C. elegans; conditions: for effect of DAF-16 knockdown on the beneficial effects (vGFP) of the compound: daf-16 RNAi, FIG. 19; for effect of HSF-1 knockdown on vGFP expression with the compound: hsf-1 RNAi, FIG. 20
Description: as §1
In order to determine a pathway the compounds are acting upon, experiments were performed with genetics already known to be involved in the handling of Aβ aggregation. The insulin/IGF-1 pathway plays a role in the handling of cellular stress. DAF-2 is the sole insulin/IGF-1 receptor in C. elegans and depletion of DAF-2 results in long-lived, stress resistant worms. The Aβ protein applies a biochemical stress to cellular activity as shown by the hsp-16.2 activity in response to its presence. […] DAF-16 encodes a FOXO transcription factor and is required for the lifepan extension in worms fed daf-2RNAi. HSF-1 is also required for the lifespan extension seen in worms fed daf-2 RNAi.
CL660 animals were fed bacteria expressing RNAi suspended in S-basal solution.

SMILES | vGFP in CL660 animals compared to control (CL660 animals [1]) | effect of DAF-16 knockdown on the beneficial effects (vGFP) of the compound (CL660 animals [2]) | effect of HSF-1 knockdown on vGFP expression with the compound (CL660 animals [2])
CCC(CC)N1C(=O)[C@H](COCc2ccccc2)NC(=O)C1C(=O)NCc1ccccc1 (some centres unmarked) [F7] | reduced vGFP | partially suppressed the beneficial effects | no effect on vGFP expression
O=C(NCc1ccccc1)C1C(=O)N[C@@H](COCc2ccccc2)C(=O)N1C1CCCC1 (some centres unmarked) [H7] | reduced vGFP | – | –
CCCCN1C(=O)[C@H](COCc2ccccc2)NC(=O)C1C(=O)NCc1ccccc1 (some centres unmarked) [D7] | reduced vGFP | partially suppressed the beneficial effects | no effect on vGFP expression
O=C(NCc1ccccc1)C1C(=O)N[C@@H](COCc2ccccc2)C(=O)N1Cc1cccnc1 (some centres unmarked) [E7] | reduced vGFP | – | –
